Where two headings read alike, the source gives them in different places.
Columns and labels:
human androgen receptor = target: T1, human androgen receptor (Homo sapiens, UniProt P10275); test: Androgen receptor (AR) binding assay, displacement of [3H]R1881 (hydroxylapatite method)
T1 construct: expressed in transfected cells; host or cells: HEK-293 cells stably transfected with the pCMV neo-hAR plasmid; the 105 000 x g cytosol was used
T1 sequence (P10275 1-920): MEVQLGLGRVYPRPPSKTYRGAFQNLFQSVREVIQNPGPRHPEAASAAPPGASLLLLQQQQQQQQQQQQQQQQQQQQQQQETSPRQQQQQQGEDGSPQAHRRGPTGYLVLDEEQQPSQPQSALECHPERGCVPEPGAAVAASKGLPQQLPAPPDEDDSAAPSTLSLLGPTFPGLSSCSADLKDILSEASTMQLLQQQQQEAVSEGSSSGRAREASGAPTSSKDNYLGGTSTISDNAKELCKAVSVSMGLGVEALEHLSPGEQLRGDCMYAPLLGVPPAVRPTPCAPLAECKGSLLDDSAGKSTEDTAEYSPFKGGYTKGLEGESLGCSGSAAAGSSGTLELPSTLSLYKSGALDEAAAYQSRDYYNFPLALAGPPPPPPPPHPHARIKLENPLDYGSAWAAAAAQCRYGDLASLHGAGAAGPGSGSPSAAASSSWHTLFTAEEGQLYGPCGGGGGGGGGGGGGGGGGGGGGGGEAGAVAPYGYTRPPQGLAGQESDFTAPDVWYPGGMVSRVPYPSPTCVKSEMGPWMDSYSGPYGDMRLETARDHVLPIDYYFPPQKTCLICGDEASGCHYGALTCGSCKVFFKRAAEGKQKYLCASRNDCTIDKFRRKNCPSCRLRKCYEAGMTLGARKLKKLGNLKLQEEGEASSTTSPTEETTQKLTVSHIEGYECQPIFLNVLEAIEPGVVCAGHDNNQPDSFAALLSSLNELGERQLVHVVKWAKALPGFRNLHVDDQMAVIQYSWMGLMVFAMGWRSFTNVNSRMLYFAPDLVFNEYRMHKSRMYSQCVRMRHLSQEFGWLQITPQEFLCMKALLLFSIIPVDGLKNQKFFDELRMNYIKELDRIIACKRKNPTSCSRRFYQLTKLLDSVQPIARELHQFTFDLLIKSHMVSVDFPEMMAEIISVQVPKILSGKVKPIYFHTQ
Procedure: The incubation was performed with 3 nM [^3H]R1881 for 16 h at 0-4° C. in the presence or absence of the indicated concentrations of unlabeled compounds.
Androgen Receptor (AR) Assay
Preparation of Human Embryonic Kidney (HEK-293) cells stably Transfected with Human AR (hAR): The pCMV neo-hAR plasmid [Huang, X.-F. and V. Luu-The, Modulation of the androgenic response by recombinant human 11-cis retinol dehydrogenase. J. Steroid Biochem., 2001. 77(2-3): p. 129-133] was transfected into HEK-293 cells using lipofectin transfection kit (Life Technologies, Ontario, Canada), and cells resistant to G418 were isolated as previously described [Dufort, I., et al., Characteristics of a highly labile human type 5 17beta-hydroxysteroid dehydrogenase. Endocrinology, 1999. 140(2): p. 568-574]. On the morning of the binding assay, a pellet of HEK-293 hAR cells was thawed, suspended in buffer, sonicated and centrifuged at 105 000×g for 90 min. The androgen binding assay was performed with the hydroxylapatite (HAP) method [Martel, C., et al., Binding characteristics of novel nonsteroidal antiestrogens to the rat uterine estrogen receptors. J. Steroid Biochem. Mol. Biol., 1998. 64: p. 199-205] using HEK-293 hAR cell cytosol preparation (0.1 ml) and 3 nM [^3H]R1881.

[1] = test system: gonadectomized (GDX) male C57BL6 mice; test: 7-day daily s.c. treatment, androgen-sensitive tissue weights in gonadectomized mice; assay type: in vivo, mouse; conditions: daily s.c. 7 days, DHT 0.1 mg or THG 0.5 mg; for levator ani muscle weight: versus intact animals; for prostate weight: versus intact controls
Excerpt: We next used the best recognized in vivo assay to assess the in vivo activity of THG [Labrie, C., A. Bélanger, and F. Labrie, Androgenic activity of dehydroepiandrosterone and androstenedione in the rat ventral prostate. Endocrinology, 1988. 123: p. 1412-1417]. […] The levator ani is an androgen-sensitive muscle [Boissonneault, G., et al., Depressed translational activity in the androgen sensitive levator ani muscle of the rat. J Steroid Biochem, 1989. 32(4): p. 507-13] which has long been recognized as a myotropic marker of the androgenic/anabolic activity of steroids [Eisenberg, S., R. Buie, Jr., and L. Tobian, Jr., Adrenal cortical function in essential hypertension; a study of sweat sodium concentration. Am J Med Sci, 1950. 220(3): p. 287-9].
Eleven- to twelve-week-old male C57BL6 mice obtained from Harlan (Indianapolis, Ind.) were allowed to acclimate for 2 weeks. The animals were housed individually in an environmentally-controlled room (temperature: 22±3° C.; humidity: 50±20%; 12-h light-12-h dark cycles, lights on at 07:15 h). The mice had free access to tap water and a certified rodent feed (Lab Diet 5002 (pellet), Ralston Purina, St-Louis, Mo.). The experiment was conducted in an animal facility approved by the Canadian Council on Animal Care (CCAC) and the Association for Assessment and Accreditation of Laboratory Animal Care (AAALAC). The study was performed in accordance with the CCAC Guide for Care and Use of Experimental Animals.
(§1) Animals weighing between 24.0 and 32.4 g (mean=28.2 g) were randomized according to body weight and were assigned to nineteen groups of 10 animals each. On day 1 of the study, animals were castrated (GDX) under isoflurane anesthesia. All animals were sacrificed 7 days after GDX. […] A GDX-vehicle injected group were used as a control. Eight intact mice of the same strain, age and body weight were sacrificed as described above and tissues were collected, weighed and discarded. The mice sacrificed 2, 4 and 7 days after starting treatment received daily injection of the steroids and were sacrificed 24 h after last injection under isoflurane anesthesia and exsanguinated via cardiac puncture. The prostate (ventral+dorsal), seminal vesicles, preputial glands as well as gastrocnemius and levator ani muscle were collected, freed from adhering tissue or fluid and weighed.

mouse prostate = test: Preliminary experiment: stimulation of mouse prostate weight, potency relative to DHT; assay type: in vivo; conditions: data not shown
Excerpt: We next used the best recognized in vivo assay to assess the in vivo activity of THG [Labrie, C., A. Bélanger, and F. Labrie, Androgenic activity of dehydroepiandrosterone and androstenedione in the rat ventral prostate. Endocrinology, 1988. 123: p. 1412-1417]. […] Similar observations were made for the preputial gland. The levator ani is an androgen-sensitive muscle [Boissonneault, G., et al., Depressed translational activity in the androgen sensitive levator ani muscle of the rat. J Steroid Biochem, 1989. 32(4): p. 507-13] which has long been recognized as a myotropic marker of the androgenic/anabolic activity of steroids [Eisenberg, S., R. Buie, Jr., and L. Tobian, Jr., Adrenal cortical function in essential hypertension; a study of sweat sodium concentration. Am J Med Sci, 1950. 220(3): p. 287-9].

[2] = test system: androgen-sensitive genes in levator ani muscle, gastrocnemius muscle and prostate; test: Microarray gene expression profile in tissues of GDX mice, genes modulated in common with DHT; assay type: in vivo, mouse; conditions: s.c. 0.5 mg THG vs 0.1 mg DHT, 0.5 h to 7 days
Excerpt: The genes selected were those identified in common according to the Affymetrix, MAS 5.0 and RMA program [Gautier, L., et al., affy—analysis of Affymetrix GeneChip data at the probe level. Bioinformatics, 2004. 20(3): p. 307-15]. Color scale representing days of fold change due to treatments is shown below the figure.
The selected genes were clustered by Euclidean distance. Columns represents each one of the 790 selected gene and each row a particular treatement group. A pseudo-colored representation of relative intensity is shown such that red indicates high, blue low and yellow unchanged expression, with scale shown at the right.
In the prostate, on the other hand, the classical androgen-sensitive tissue [Labrie, C., A. Bélanger, and F. Labrie, Androgenic activity of dehydroepiandrosterone and androstenedione in the rat ventral prostate. Endocrinology, 1988. 123: p.
as §1, with “The prostate (ventral+dorsal), seminal vesicles, preputial glands as well as gastrocnemius and levator ani muscle were collected, freed from adhering tissue or fluid and weighed.” left out
RNA extraction and microarrays tissues were snap-frozen in liquid nitrogen and kept at −80° C. prior to RNA extraction. […] Scanned images were analyzed with Affymetrix GCOS v1.1 software and with GeneSpring 6.1 software (Silicon Genetics, Redwood City, Calif.) as described [Vasseur, S., et al., Gene expression profiling by DNA microarray analysis in mouse embryonicfibroblasts transformed by rasV12 mutated protein and the E1A oncogene. […]

SMILES | relative potency to displace [3H]R1881 from the human AR (human androgen receptor) | preputial gland weight [1] | seminal vesicle weight [1] | levator ani muscle weight [1] | prostate weight [1] | potency relative to DHT as stimulator of the weight of the mouse prostate (mouse prostate) [%] | number of genes commonly modulated by DHT and THG in gastrocnemius muscle [2] [genes] | number of genes commonly modulated by DHT and THG in levator ani muscle [2] [genes] | number of genes commonly modulated by DHT and THG in prostate [2] [genes] | relative potency to displace [3H]R1881 from the human AR (human androgen receptor; 3 nM [3H]R1881, 16 h at 0-4° C., HEK-293 hAR cell cytosol, THG = 1.0)
C[C@]1(O)CC[C@H]2[C@@H]3CCC4=CC(=O)CCC4=C3C=C[C@@]21C [R1881, methyltrienolone, reference compound] | 0.72 | – | – | – | – | – | – | – | – | –
C[C@]12CCC(=O)C[C@@H]1CC[C@@H]1[C@@H]2CC[C@]2(C)[C@@H](O)CC[C@@H]12 [DHT, dihydrotestosterone, reference compound] | – | completely reversed the GDX-induced atrophy | completely reversed the GDX-induced atrophy | increased weight of levator ani to values not different from intact animals | completely reversed the GDX-induced atrophy of the prostate | – | – | – | – | –
CC[C@]1(O)CC[C@H]2[C@@H]3CCC4=CC(=O)CCC4=C3C=C[C@@]21CC [THG, tetrahydrogestrinone] | – | completely reversed the GDX-induced atrophy | completely reversed the GDX-induced atrophy | increased weight of levator ani to values not different from intact animals | reversed the effect of GDX, to a value not statistically different from intact controls | 20 | 112 | 790 | 1121 | 1.0
